Measured values: the kinase profiling compilation of Christmann-Franck et al. (2016)

Assays:
Assay in all cases: radiometric filter-binding kinase assay, Kinase HotSpot
Conditions in all cases: compound 0.5 µM; ATP 10 µM
LTK (human) = LTK (human) (UniProt P29376)
BTK (human) = BTK (human) (UniProt Q06187)
NTRK1 (human) = NTRK1 (human) (UniProt P04629)
ABL2 (human) = ABL2 (human) (UniProt P42684)
CHUK (human) = CHUK (human) (UniProt O15111)
MST1R (human) = MST1R (human) (UniProt Q04912)
MET (human) = MET (human) (UniProt P08581)
CSNK1G2 (human) = CSNK1G2 (human) (UniProt P78368)
CAMK1 (human) = CAMK1 (human) (UniProt Q14012)
RIPK2 (human) = RIPK2 (human) (UniProt O43353)
PRKX (human) = PRKX (human) (UniProt P51817)
PRKX (human), sequence (P51817 whole entry, looked up): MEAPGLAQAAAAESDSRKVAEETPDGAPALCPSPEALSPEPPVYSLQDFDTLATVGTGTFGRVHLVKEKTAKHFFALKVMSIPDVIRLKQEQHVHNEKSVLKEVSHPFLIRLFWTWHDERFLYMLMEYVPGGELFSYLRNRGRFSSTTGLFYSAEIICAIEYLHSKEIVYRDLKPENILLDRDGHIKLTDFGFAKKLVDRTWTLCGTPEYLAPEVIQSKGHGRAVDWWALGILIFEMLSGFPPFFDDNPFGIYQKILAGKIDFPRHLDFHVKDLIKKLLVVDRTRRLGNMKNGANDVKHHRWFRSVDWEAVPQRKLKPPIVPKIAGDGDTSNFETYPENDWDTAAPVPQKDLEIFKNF

PRKD1 (human) = PRKD1 (human) (UniProt Q15139)
MYLK (human) = MYLK (human) (UniProt Q15746)
INSRR (human) = INSRR (human) (UniProt P14616)
IKBKB (human) = IKBKB (human) (UniProt O14920)
MATK (human) = MATK (human) (UniProt P42679)
PKN1 (human) = PKN1 (human) (UniProt Q16512)
EPHA8 (human) = EPHA8 (human) (UniProt P29322)
MAPK10 (human) = MAPK10 (human) (UniProt P53779)
MAPK10 (human), sequence (P53779 whole entry, looked up): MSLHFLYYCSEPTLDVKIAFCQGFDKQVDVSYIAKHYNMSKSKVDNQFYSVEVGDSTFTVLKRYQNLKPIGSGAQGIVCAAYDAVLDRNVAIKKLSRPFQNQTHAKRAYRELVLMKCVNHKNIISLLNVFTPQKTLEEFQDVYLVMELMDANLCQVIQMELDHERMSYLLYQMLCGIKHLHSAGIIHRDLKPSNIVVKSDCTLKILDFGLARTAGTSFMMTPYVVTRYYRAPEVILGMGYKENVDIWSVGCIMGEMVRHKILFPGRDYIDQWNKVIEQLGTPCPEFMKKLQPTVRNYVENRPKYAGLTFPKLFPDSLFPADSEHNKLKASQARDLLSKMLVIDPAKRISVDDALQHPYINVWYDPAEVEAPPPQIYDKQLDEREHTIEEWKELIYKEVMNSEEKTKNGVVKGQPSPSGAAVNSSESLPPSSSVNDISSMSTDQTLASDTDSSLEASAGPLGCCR

PAK2 (human) = PAK2 (human) (UniProt Q13177)
MAP3K3 (human) = MAP3K3 (human) (UniProt Q99759)
PTK6 (human) = PTK6 (human) (UniProt Q13882)
GSK3A (human) = GSK3A (human) (UniProt P49840)
GSK3A (human), sequence (P49840 whole entry, looked up): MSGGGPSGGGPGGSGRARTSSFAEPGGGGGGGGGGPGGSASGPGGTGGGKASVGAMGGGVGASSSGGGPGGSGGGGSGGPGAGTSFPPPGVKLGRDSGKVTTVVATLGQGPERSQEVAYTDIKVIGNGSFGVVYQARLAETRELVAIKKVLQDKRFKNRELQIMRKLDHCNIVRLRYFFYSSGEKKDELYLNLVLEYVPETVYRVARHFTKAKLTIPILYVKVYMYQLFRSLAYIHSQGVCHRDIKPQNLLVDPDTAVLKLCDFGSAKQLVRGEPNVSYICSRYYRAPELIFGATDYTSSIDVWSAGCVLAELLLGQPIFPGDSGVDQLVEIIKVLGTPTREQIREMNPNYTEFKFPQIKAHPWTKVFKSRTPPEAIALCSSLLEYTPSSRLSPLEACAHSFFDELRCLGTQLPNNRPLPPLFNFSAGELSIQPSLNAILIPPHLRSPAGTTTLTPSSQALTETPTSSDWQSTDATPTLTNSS

ULK2 (human) = ULK2 (human) (UniProt Q8IYT8)
AKT3 (human) = AKT3 (human) (UniProt Q9Y243)
CDK2 CCNA2 (human) = CDK2 CCNA2 (human) (UniProt P24941+P20248)
SRPK1 (human) = SRPK1 (human) (UniProt Q96SB4)
STK25 (human) = STK25 (human) (UniProt O00506)
CDK1 CCNA2 (human) = CDK1 CCNA2 (human) (UniProt P06493+P20248)
NTRK3 (human) = NTRK3 (human) (UniProt Q16288)
CDK2 CCNE1 (human) = CDK2 CCNE1 (human) (UniProt P24941+P24864)
CDK7 CCNH MNAT1 (human) = CDK7 CCNH MNAT1 (human) (UniProt P50613+P51948+P51946)
CDK7 CCNH MNAT1 (human), sequence (P50613 whole entry, looked up): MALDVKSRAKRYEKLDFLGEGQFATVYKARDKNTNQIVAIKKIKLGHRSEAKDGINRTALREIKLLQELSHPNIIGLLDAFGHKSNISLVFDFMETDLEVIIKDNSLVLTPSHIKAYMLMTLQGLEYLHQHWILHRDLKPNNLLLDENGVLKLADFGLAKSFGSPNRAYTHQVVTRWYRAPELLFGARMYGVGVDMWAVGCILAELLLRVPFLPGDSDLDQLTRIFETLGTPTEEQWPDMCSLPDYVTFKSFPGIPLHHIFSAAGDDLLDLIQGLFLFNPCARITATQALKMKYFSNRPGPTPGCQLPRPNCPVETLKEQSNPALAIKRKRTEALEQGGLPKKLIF
CDK7 CCNH MNAT1 (human), sequence (P51946 whole entry, looked up): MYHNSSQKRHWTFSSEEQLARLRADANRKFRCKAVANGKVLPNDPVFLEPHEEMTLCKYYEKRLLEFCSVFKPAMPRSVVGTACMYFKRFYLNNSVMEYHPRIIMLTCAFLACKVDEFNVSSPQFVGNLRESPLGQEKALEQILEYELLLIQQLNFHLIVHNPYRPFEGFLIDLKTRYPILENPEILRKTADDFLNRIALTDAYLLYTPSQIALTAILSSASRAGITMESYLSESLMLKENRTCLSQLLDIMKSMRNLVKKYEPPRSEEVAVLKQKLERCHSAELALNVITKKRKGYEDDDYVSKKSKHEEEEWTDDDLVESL
CDK7 CCNH MNAT1 (human), sequence (P51948 whole entry, looked up): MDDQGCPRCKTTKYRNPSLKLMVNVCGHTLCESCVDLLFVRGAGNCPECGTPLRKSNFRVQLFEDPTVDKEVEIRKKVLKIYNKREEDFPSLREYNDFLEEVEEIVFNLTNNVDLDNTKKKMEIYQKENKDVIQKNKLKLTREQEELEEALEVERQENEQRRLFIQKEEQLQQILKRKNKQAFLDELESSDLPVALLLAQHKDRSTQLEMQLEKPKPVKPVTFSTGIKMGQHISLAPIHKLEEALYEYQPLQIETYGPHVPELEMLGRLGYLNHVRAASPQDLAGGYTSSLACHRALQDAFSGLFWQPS

GSG2 (human) = GSG2 (human) (UniProt Q8TF76)
DYRK4 (human) = DYRK4 (human) (UniProt Q9NR20)
ABL1 (human) = ABL1 (human) (UniProt P00519)
TBK1 (human) = TBK1 (human) (UniProt Q9UHD2)
CAMK2A (human) = CAMK2A (human) (UniProt Q9UQM7)
CAMK2A (human), sequence (Q9UQM7 whole entry, looked up): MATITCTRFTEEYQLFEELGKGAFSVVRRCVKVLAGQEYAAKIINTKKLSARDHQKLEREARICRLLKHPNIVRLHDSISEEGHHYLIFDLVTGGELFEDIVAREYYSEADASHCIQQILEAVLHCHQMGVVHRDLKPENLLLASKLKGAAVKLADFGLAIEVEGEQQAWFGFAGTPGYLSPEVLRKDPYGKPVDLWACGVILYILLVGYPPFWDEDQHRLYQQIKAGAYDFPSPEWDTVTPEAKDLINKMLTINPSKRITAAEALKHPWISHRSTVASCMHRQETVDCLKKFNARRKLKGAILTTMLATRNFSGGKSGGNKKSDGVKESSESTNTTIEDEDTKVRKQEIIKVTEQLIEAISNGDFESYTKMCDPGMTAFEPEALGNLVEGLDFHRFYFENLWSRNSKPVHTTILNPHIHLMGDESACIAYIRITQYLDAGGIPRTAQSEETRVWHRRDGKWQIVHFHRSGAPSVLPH

MAPK3 (human) = MAPK3 (human) (UniProt P27361)
CAMK4 (human) = CAMK4 (human) (UniProt Q16566)
MYLK2 (human) = MYLK2 (human) (UniProt Q9H1R3)
ADRBK1 (human) = ADRBK1 (human) (UniProt P25098)
ADRBK1 (human), sequence (P25098 whole entry, looked up): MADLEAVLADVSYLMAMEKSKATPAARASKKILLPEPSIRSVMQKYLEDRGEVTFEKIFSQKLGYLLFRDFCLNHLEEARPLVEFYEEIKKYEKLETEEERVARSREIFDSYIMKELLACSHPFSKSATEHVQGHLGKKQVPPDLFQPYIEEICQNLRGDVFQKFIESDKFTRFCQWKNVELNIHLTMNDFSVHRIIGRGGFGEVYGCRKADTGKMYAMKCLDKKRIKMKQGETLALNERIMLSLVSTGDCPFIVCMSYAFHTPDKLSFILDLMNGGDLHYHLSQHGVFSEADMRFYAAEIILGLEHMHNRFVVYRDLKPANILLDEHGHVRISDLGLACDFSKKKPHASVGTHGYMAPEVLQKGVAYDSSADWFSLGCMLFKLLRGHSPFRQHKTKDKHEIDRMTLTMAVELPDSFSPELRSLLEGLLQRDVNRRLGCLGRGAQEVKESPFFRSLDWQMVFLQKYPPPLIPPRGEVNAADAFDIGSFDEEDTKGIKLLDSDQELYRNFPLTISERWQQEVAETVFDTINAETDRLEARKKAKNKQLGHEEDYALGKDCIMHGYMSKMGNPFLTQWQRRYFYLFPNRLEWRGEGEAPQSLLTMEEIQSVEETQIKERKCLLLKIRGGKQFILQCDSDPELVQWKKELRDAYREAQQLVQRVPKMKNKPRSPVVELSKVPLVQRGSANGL

STK3 (human) = STK3 (human) (UniProt Q13188)

MST1R (human), sequence (Q04912 whole entry, looked up): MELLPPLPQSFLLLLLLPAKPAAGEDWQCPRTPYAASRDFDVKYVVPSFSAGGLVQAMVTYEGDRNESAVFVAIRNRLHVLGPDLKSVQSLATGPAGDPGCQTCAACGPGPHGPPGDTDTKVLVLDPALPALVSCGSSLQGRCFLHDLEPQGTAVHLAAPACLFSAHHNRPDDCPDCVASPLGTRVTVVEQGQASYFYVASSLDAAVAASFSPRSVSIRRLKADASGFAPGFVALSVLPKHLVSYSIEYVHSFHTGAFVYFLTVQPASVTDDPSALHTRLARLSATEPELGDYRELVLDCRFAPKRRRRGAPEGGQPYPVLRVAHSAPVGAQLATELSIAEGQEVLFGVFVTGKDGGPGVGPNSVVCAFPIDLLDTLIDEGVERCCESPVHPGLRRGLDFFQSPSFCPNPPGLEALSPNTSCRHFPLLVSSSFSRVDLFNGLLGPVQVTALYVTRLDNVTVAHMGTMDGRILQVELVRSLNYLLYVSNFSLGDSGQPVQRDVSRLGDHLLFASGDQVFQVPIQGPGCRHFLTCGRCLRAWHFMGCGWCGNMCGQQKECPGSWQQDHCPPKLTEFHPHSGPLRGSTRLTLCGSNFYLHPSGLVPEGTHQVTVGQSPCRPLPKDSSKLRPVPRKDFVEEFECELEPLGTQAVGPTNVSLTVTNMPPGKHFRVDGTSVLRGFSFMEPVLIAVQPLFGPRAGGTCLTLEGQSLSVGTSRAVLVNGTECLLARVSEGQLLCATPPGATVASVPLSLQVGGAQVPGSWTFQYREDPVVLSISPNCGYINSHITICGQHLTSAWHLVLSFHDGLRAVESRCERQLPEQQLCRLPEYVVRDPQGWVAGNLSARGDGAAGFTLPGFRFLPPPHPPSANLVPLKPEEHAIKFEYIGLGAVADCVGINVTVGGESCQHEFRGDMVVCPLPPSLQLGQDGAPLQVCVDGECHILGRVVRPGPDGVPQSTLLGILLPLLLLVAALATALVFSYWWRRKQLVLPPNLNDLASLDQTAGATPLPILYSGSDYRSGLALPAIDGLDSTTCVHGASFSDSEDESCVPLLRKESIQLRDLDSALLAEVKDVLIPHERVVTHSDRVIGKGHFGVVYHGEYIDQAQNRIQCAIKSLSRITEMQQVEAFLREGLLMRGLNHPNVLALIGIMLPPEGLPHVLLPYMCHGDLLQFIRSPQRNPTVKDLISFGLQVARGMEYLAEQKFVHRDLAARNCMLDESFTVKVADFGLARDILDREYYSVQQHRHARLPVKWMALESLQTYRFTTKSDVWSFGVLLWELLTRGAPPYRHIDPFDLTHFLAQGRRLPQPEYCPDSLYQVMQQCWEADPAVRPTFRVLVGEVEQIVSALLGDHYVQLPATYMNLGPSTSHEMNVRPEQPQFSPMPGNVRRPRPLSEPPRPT

O=c1cc(N2CCOCC2)oc2c(-c3ccccc3)cccc12
residual activity (LTK (human)): 87.8%
residual activity (BTK (human)): 94.5%
residual activity (NTRK1 (human)): 95%
residual activity (ABL2 (human)): 98.1%
residual activity (CHUK (human)): 104%
residual activity (MST1R (human)): 109%
residual activity (MET (human)): 127%
residual activity (CSNK1G2 (human)): 94.4%
residual activity (CAMK1 (human)): 96.7%
residual activity (RIPK2 (human)): 89.9%
residual activity (PRKX (human)): 101%
residual activity (PRKD1 (human)): 98.3%
residual activity (MYLK (human)): 97.8%
residual activity (INSRR (human)): 97.7%
residual activity (IKBKB (human)): 100%
residual activity (MATK (human)): 84.6%
residual activity (PKN1 (human)): 109%
residual activity (EPHA8 (human)): 103%
residual activity (MAPK10 (human)): 87.1%
residual activity (PAK2 (human)): 103%
residual activity (MAP3K3 (human)): 93.4%
residual activity (PTK6 (human)): 96%
residual activity (GSK3A (human)): 93.5%
residual activity (ULK2 (human)): 113%
residual activity (AKT3 (human)): 102%
residual activity (CDK2 CCNA2 (human)): 106%
residual activity (SRPK1 (human)): 104%
residual activity (STK25 (human)): 116%
residual activity (CDK1 CCNA2 (human)): 92%
residual activity (NTRK3 (human)): 95.9%
residual activity (CDK2 CCNE1 (human)): 93%
residual activity (CDK7 CCNH MNAT1 (human)): 95.4%
residual activity (GSG2 (human)): 93.4%
residual activity (DYRK4 (human)): 91.9%
residual activity (ABL1 (human)): 99.2%
residual activity (TBK1 (human)): 94.1%
residual activity (CAMK2A (human)): 91.1%
residual activity (MAPK3 (human)): 104%
residual activity (CAMK4 (human)): 104%
residual activity (MYLK2 (human)): 102%
residual activity (ADRBK1 (human)): 106%

O=S(=O)(NCCNC/C=C/c1ccc(Br)cc1)c1cccc2cnccc12
residual activity (LTK (human)): 94.7%
residual activity (BTK (human)): 97.4%
residual activity (NTRK1 (human)): 84.9%
residual activity (ABL2 (human)): 84.4%
residual activity (CHUK (human)): 104%
residual activity (MST1R (human)): 97.4%
residual activity (CSNK1G2 (human)): 86.8%
residual activity (CAMK1 (human)): 107%
residual activity (RIPK2 (human)): 77.8%
residual activity (PRKX (human)): -2.49%
residual activity (PRKD1 (human)): 98.7%
residual activity (MYLK (human)): 90.8%
residual activity (INSRR (human)): 103%
residual activity (IKBKB (human)): 89.5%
residual activity (MATK (human)): 96.1%
residual activity (PKN1 (human)): 14.3%
residual activity (EPHA8 (human)): 118%
residual activity (MAPK10 (human)): 92.6%
residual activity (PAK2 (human)): 78.6%
residual activity (STK3 (human)): 65.6%
residual activity (MAP3K3 (human)): 85.4%
residual activity (PTK6 (human)): 94.2%
residual activity (GSK3A (human)): 94.3%
residual activity (ULK2 (human)): 98.9%
residual activity (AKT3 (human)): 69%
residual activity (CDK2 CCNA2 (human)): 105%
residual activity (STK25 (human)): 104%
residual activity (CDK1 CCNA2 (human)): 95.3%
residual activity (NTRK3 (human)): 79.6%
residual activity (CDK2 CCNE1 (human)): 99.3%
residual activity (CDK7 CCNH MNAT1 (human)): 82.8%
residual activity (GSG2 (human)): 55.1%
residual activity (DYRK4 (human)): 96.4%
residual activity (ABL1 (human)): 101%
residual activity (TBK1 (human)): 101%
residual activity (CAMK2A (human)): 102%
residual activity (MAPK3 (human)): 84.8%
residual activity (CAMK4 (human)): 95.2%
residual activity (MYLK2 (human)): 96.5%
residual activity (ADRBK1 (human)): 91.3%

O=c1c(-c2ccc(F)cc2)c(-c2ccncc2)[nH]n1-c1ccc(Cl)cc1
residual activity (LTK (human)): 75.5%
residual activity (BTK (human)): 83.6%
residual activity (NTRK1 (human)): 95.5%
residual activity (ABL2 (human)): 82.8%
residual activity (CHUK (human)): 101%
residual activity (MST1R (human)): 95%
residual activity (MET (human)): 101%
residual activity (CSNK1G2 (human)): 93.8%
residual activity (CAMK1 (human)): 94.4%
residual activity (RIPK2 (human)): 50.2%
residual activity (PRKX (human)): 97%
residual activity (PRKD1 (human)): 84.7%
residual activity (MYLK (human)): 101%
residual activity (INSRR (human)): 95.4%
residual activity (IKBKB (human)): 102%
residual activity (MATK (human)): 86%
residual activity (PKN1 (human)): 92.4%
residual activity (EPHA8 (human)): 94.4%
residual activity (MAPK10 (human)): 97.1%
residual activity (PAK2 (human)): 102%
residual activity (STK3 (human)): 88.3%
residual activity (MAP3K3 (human)): 96.2%
residual activity (PTK6 (human)): 57.5%
residual activity (GSK3A (human)): 93.3%
residual activity (AKT3 (human)): 94.3%
residual activity (CDK2 CCNA2 (human)): 89.9%
residual activity (SRPK1 (human)): 97.9%
residual activity (STK25 (human)): 111%
residual activity (CDK1 CCNA2 (human)): 83.1%
residual activity (NTRK3 (human)): 99.2%
residual activity (CDK2 CCNE1 (human)): 89.1%
residual activity (CDK7 CCNH MNAT1 (human)): 97.4%
residual activity (GSG2 (human)): 96.5%
residual activity (DYRK4 (human)): 81.5%
residual activity (ABL1 (human)): 98.1%
residual activity (TBK1 (human)): 112%
residual activity (CAMK2A (human)): 86.9%
residual activity (MAPK3 (human)): 103%
residual activity (CAMK4 (human)): 104%
residual activity (MYLK2 (human)): 101%
residual activity (ADRBK1 (human)): 106%
